Entries after “also recorded” stand apart in the source; their conditions may differ. Where two headings read alike, the source gives them in different places.
Tests used:
[1] = test system: Sprague Dawley rats; assay: Conditioned place preference assay; conditions: i.p.
[2] = target: T1, κ opioid receptor (KOR) (Homo sapiens, UniProt P41145); assay: cell-based; type: cell-based
T1 construct: expressed in transfected cells

[3] = test system: mice; assay: Centrally mediated antinociceptive effects (tail-flick), i.p. doses, 10 s cutoff; type: in vivo
[4] = target: T2, μ opioid receptor (MOR) (Homo sapiens, UniProt P35372); assay: cell-based; type: cell-based
T2 construct: expressed in transfected cells
T2 sequence (P35372 whole entry): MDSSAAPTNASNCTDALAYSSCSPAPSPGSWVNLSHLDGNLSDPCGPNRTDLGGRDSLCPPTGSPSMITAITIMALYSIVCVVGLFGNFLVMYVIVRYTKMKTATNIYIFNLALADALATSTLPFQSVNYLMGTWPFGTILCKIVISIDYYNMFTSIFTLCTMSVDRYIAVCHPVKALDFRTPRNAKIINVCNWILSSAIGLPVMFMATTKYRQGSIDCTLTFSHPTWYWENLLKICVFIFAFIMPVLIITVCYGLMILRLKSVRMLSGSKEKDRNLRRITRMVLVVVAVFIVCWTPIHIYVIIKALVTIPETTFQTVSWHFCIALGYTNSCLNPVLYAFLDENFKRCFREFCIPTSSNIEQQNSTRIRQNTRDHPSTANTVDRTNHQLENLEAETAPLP

[5] = test system: mice; assay: Hot water tail-flick tolerance evaluation, daily dosing; type: in vivo; conditions: for antinociceptive effects over days of daily administration (tolerance): 7 mg/kg i.p. daily, days 1, 3, 5, 6, mice; for antinociceptive effects on day 6 challenge after daily vehicle: daily vehicle treated mice challenged on day 6
[6] = test system: mice; assay: Hot water tail-flick cumulative dose-response (s.c.); type: in vivo; conditions: Mus musculus, sc, 0.5 h, cumulative s.c. doses 1-30 mg/kg, latency 30 min after each dose
[7] = test system: mice; assay: Accelerating rotarod performance assay; conditions: 10 mg/kg i.p.; compared to kurkinorin and vehicle

T1 sequence (P41145 whole entry): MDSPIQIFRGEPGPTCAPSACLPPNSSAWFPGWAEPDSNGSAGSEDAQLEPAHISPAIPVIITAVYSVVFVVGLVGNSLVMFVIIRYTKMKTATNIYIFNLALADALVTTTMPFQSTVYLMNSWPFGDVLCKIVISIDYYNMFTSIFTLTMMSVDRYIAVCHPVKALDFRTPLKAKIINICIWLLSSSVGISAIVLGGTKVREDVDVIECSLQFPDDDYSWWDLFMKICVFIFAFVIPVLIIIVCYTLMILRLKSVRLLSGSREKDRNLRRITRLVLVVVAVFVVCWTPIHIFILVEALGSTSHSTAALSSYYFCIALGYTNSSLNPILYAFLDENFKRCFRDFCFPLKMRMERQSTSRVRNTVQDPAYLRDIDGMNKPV

| Compound | conditioned place preference ([1]; 5 mg/kg) | antinociceptive effects over days of daily administration (tolerance) [5] | antinociceptive effects on day 6 challenge after daily vehicle [5] | ED50 [6] [mg/kg] | melting point [°C] | EC50 ([4]; EC50) [nM] | further results |
| --- | --- | --- | --- | --- | --- | --- | --- |
| COC(=O)[C@@H]1C[C@H](OC(=O)c2ccccc2)C(=O)[C@H]2[C@@]1(C)CC[C@H]1C(=O)O[C@H](c3ccoc3)C[C@]21C [Compound 2, herkinorin, reference compound] | Neither kurkinorin (5) nor herkinorin (2) were significantly different to vehicle |  |  |  |  |  | EC50 ([2]; read-out: EC50 ± SEM κ): 170 ± 30 nM; antinociceptive effects ([3]; 1, 5, and 10 mg/kg, i.p., 10 s cutoff): no significant antinociceptive effects; Selectivity μ/κ [4]: 4.4; selectivity for the MOR over KOR [4]: 4.4 fold; EC50 ([4]; EC50 ± SEM μ): 39 ± 4 nM; EC50 ([4]; Series 1 EC50): 42 ± 4 nM |
| COC(=O)[C@@H]1C=C(OC(=O)c2ccccc2)C(=O)[C@H]2[C@@]1(C)CC[C@H]1C(=O)O[C@H](c3ccoc3)C[C@]21C [Compound 5, (2S,4aR,6aR,6aR,10aR,10bR)-Methyl 2-(furan-3-yl)-9-((benzoyl)oxy)-6a,10b-dimethyl-4,10-dioxo-2,4,4a,5,6,6a,7,10,10a,10b-decahydro-1H-benzo[f]isochromene-7-carboxylate] | Neither kurkinorin (5) nor herkinorin (2) were significantly different to vehicle | maintained antinociceptive efficacy from days 1-6 | antinociceptive effects similar to day 1 | 9.72 |  |  | conditioned place preference ([1]; 10 mg/kg, listed as Kurkinorin): significant decrease in preference compared to morphine; also recorded: not significantly different form vehicle; EC50 [2]: > 10000 nM; activity at the KOR [2]: no activity; antinociceptive effects ([3]; 5 and 10 mg/kg i.p., similar to morphine at 10 mg/kg): significant antinociceptive effects |
| CN1CC[C@]23c4c5ccc(O)c4O[C@H]2[C@@H](O)C=C[C@H]3[C@H]1C5 [Morphine, morphine, reference compound] | significant place preference | significant antinociceptive effects on days 1, 3, and 5 but not day 6 | antinociceptive effects similar to day 1 | 9.86 |  |  | conditioned place preference ([1]; 10 mg/kg): significant place preference; motor coordination (rotarod) [7]: significant decrease in motor coordination |
| COC(=O)[C@@H]1C=C(OC(=O)c2cccc(O)c2)C(=O)[C@H]2[C@@]1(C)CC[C@H]1C(=O)O[C@H](c3ccoc3)C[C@]21C [Table 3 Entry 2, (2S,4aR,6aR,7R,10aR,10bR)-Methyl 2-(furan-3-yl)-9-((3-hydroxybenzoyl)oxy)-6a,10b-dimethyl-4,10-dioxo-2,4,4a,5,6,6a,7,10,10a,10bdecahydro-1H-benzo[f]isochromene-7-carboxylate] |  |  |  |  | 124 to 126 | 1.3 ± 0.3 |  |
| COC(=O)[C@@H]1C=C(OC(=O)c2ccc(O)cc2)C(=O)[C@H]2[C@@]1(C)CC[C@H]1C(=O)O[C@H](c3ccoc3)C[C@]21C [Table 3 Entry 3, (2S,4aR,6aR,7R,10aR,10bR)-Methyl 2-(furan-3-yl)-9-((4-hydroxybenzoyl)oxy)-6a,10b-dimethyl-4,10-dioxo-2,4,4a,5,6,6a,7,10,10a,10b-decahydro-1H-benzo[f]isochromene-7-carboxylate] |  |  |  |  | 136 to 139 | 0.83 ± 0.04 |  |

Reference: US10125129B2 (priority 2016, dated 2018)
